Experimental data as given in PMC11876601 (Molecular Systems Biology, 2025).
Values joined by “and” are separate entries in the source; they are usually repeats but may differ in a detail not shown here. Identical values can stand only once. Like-named read-outs stand apart in the source and are kept apart here.

Assays:
Assay in all cases: PDO viability assay (CellTiter-Glo, 72 h);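 as to Curve top: fraction of plate-wise median vehicle signal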
Format in all cases: cell-based, human
[1] = test system: PDO UME008;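 as to Curve top: fraction of plate-wise median vehicle signal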
Procedure: (§1) Primary patient-derived PDAC organoid (PDO) experiments were performed in the laboratories of Prof. Maximilian Reichert (University Hospital of the TU Munich, Germany, PDO set 1: B250, B535, B678) and Prof. Jens T. Siveke (University Hospital Essen, Germany; PDO set 2: UME008, UME012, UME051, UME053, UME060, UME061). PDOs were generated from surgical resection, EUS-guided fine needle biopsy (EUS-FNB), or ascites (Appendix Table S2). Surgical specimens were first minced with a sterile scalpel and subsequently washed with Anti-Anti solution and washing medium (PDO set 1), or vice versa (PDO set 2; Appendix Table S3). Biopsy samples were directly washed with an Anti-Anti solution and washing medium. Samples were digested using 1 ml of digestion medium at 37 °C while shaking, and the enzymatic reaction was stopped by adding 15 ml of washing medium (Appendix Table S3). If samples of PDO set 1 were blood-stained, tissue pellets were first incubated with ACK lysing buffer/red blood cells lysis buffer (Thermo Fisher Scientific) for 5 min and then digested using TrypLE (Thermo Fisher Scientific). The reversed procedure was applied for blood-stained samples of PDO set 2. For PDO generation from ascites, the material was first spun down at 500 × g for 5 min. Then, washing medium was added and the suspension was centrifuged at 300 × g for 5 min. If the pellet was blood-stained, ACK lysis buffer was added and incubated at room temperature.
(§2) For viability assays in PDOs, confluent organoids were removed from medium, and Matrigel was dissolved by adding 200 μl (PDO set 1) or 2 ml (PDO set 2) of Cell Recovery Solution (Corning), and additionally 500 μl of DPBS (PDO set 1 only). Samples were transferred into a falcon and incubated on ice for 30 min, followed by centrifugation at 300 × g at 4 °C for 5 min (after adding 10 ml washing medium for PDO set 2). Subsequently, TrypLE Express Enzyme (Thermo Fisher) was added to cell pellets and incubated for 2 × 5 min at 37 °C. The enzymatic reaction was quenched by DPBS (PDO set 1) or washing medium (PDO set 2), and samples were washed by centrifugation at 300 × g at 4 °C for 5 min. Five hundred cells/well were seeded in 384-well plates (Corning) in 50 μl of PDO medium containing 10% Matrigel. To allow PDO generation, cells were incubated for 4 days at 37 °C and 5% CO2. […] Experiments were pipetted manually (PDO set 1) or automatically using a TECAN D300e Digital Dispenser (HP; PDO set 2). Treatments were performed in eight replicates, except for PDO PPES045 (quadruplicates). After 72 h, cell viability was measured using the CellTiter-Glo Luminescent Cell Viability Assay (Promega) diluted 1:5 in the final volume of the well. After 20 min of incubation at room temperature under gentle shaking, the acquisition was performed in the microplate reader VantaSTAR (BMG Labtech) using 3000 gain for the amplification measurement of a detected signal (PDO set 1) or the Spark Multimode microplate reader (TECAN) at 800 ms integration time (PDO set 2).

[2] = test system: PDO B250; settings: for pEC50: single replicates R1-R8
Procedure: as §1, §2

[3] = test system: PDO B678
Procedure: as §1, §2

[4] = test system: PDO UME060;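 as to Curve top: fraction of plate-wise median vehicle signal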
Procedure: as §1, §2

[5] = test system: PDO B535; settings: for pEC50: single replicates R1-R8
Procedure: as §1, §2

[6] = PDO UME008, GEM + Elimusertib (ATRi) dose1, per replicate
[7] = PDO UME008, GEM + Elimusertib (ATRi) dose2, per replicate
[8] = PDO UME008, GEM + Elimusertib (ATRi) dose3, per replicate
[9] = PDO UME008, GEM alone, per replicate
[10] = Experiment GEM (GEM alone), single replicates R1-R8, read-out: EC50
[11] = Experiment GEM+ATRi_dose1 (ATRi = Elimusertib)
[12] = Experiment GEM+ATRi_dose1 (ATRi = Elimusertib), single replicates R1-R8, read-out: EC50
[13] = Homo sapiens, Experiment GEM (GEM alone), mean of replicates, read-out: EC50 mean
[14] = Homo sapiens, Experiment GEM+ATRi_dose1 (ATRi = Elimusertib), mean of replicates, read-out: EC50 mean
[15] = Homo sapiens, Experiment GEM+ATRi_dose2 (ATRi = Elimusertib), mean of replicates, read-out: EC50 mean
[16] = Homo sapiens, GEM alone, read-out: EC50 mean
[17] = Homo sapiens, Experiment GEM+ATRi_dose3 (ATRi = Elimusertib), mean of replicates, read-out: EC50 mean

Which EC50 ([1]; Homo sapiens, PDO UME008, GEM + Elimusertib (ATRi) dose1, mean of replicates, read-out: EC50 mean) does the source give for `Nc1ccn([C@@H]2O[C@H](CO)[C@@H](O)C2(F)F)c(=O)n1` [GEM, Gemcitabine] here?
The EC50 was 5.72 nM.

And the EC50 ([1]; Homo sapiens, PDO UME008, GEM + Elimusertib (ATRi) dose1, per replicate, read-out: EC50)?
Its EC50 is 5.99 nM.

And the EC50 ([1]; Homo sapiens, PDO UME008, GEM + Elimusertib (ATRi) dose1, per replicate, read-out: pEC50 (converted))?
The EC50 was 6.03 nM.

What about the EC50 ([1]; Homo sapiens, PDO UME008, GEM alone, mean of replicates, read-out: EC50 mean) of the same compound?
The EC50 was 26.4 nM.

And the EC50 ([1]; Homo sapiens, PDO UME008, GEM alone, read-out: EC50 mean)?
The EC50 was 26.4 nM.

And the EC50 ([1]; Homo sapiens, SET-2, PDO UME008 (PDO set 2), Experiment GEM (GEM alone), mean of replicates, read-out: EC50 mean)?
The EC50 was 26.4 nM.

And the EC50 ([1]; Homo sapiens, SET-2, PDO UME008 (PDO set 2), Experiment GEM (GEM alone), single replicates, read-out: EC50)?
Its EC50 is 35.3 nM.

What about the EC50 ([1]; Homo sapiens, SET-2, PDO UME008 (PDO set 2), Experiment GEM (GEM alone), single replicates, read-out: pEC50 (converted)) of the same compound?
Its EC50 is 35.5 nM.

What about the EC50 ([1]; Homo sapiens, SET-2, PDO UME008 (PDO set 2), Experiment GEM+ATRi_dose1 (ATRi = Elimusertib), mean of replicates, read-out: EC50 mean) of the same compound?
Its EC50 is 5.72 nM.

And the EC50 ([1]; Homo sapiens, SET-2, PDO UME008 (PDO set 2), Experiment GEM+ATRi_dose1 (ATRi = Elimusertib), single replicates, read-out: EC50)?
The EC50 was 4.47 nM.

What about the EC50 ([1]; Homo sapiens, SET-2, PDO UME008 (PDO set 2), Experiment GEM+ATRi_dose1 (ATRi = Elimusertib), single replicates, read-out: pEC50 (converted)) of the same compound?
The EC50 was 4.47 nM.

And the Curve slope [1, 6]?
The Curve slope was 0.15 and 0.09 and 0.06 and 0.14 and 0.13 and 0.10 and 0.08.

And the Curve top [1, 6]?
Its Curve top is 0.83 and 1.39 and 1.43 and 1.58.

What about the pEC50 [1, 6] of the same compound?
Its pEC50 is 8.33 and 8.31 and 8.10 and 8.30 and 8.17.

What about the EC50 ([1]; PDO UME008, GEM + Elimusertib (ATRi) dose1, per replicate, read-out: EC50) of the same compound?
Its EC50 is 4.68 nM and 4.87 nM and 6.08 nM and 7.93 nM and 4.97 nM and 6.77 nM.

And the Curve slope [1, 7]?
The Curve slope was 0.07 and 0.08 and 0.13 and 0.0742 and 0.12.

And the Curve top [1, 7]?
Its Curve top is 1.01 and 1.56 and 1.34 and 1.60 and 1.61 and 1.89.

And the pEC50 [1, 7]?
Its pEC50 is 8.24 and 8.33 and 8.77.

What about the EC50 ([1]; PDO UME008, GEM + Elimusertib (ATRi) dose2, per replicate, read-out: EC50) of the same compound?
Its EC50 is 5.77 nM and 3.11 nM and 4.73 nM and 1.69 nM.

What about the Curve slope [1, 8] of the same compound?
The Curve slope was 0.10 and 0.07 and 0.08 and 0.0752 and 0.11 and 0.09.

And the Curve top [1, 8]?
The Curve top was 1.25 and 0.88 and 1.26.

And the pEC50 [1, 8]?
The pEC50 was 8.27 and 8.67 and 8.63 and 8.23 and 8.28.

And the EC50 ([1]; PDO UME008, GEM + Elimusertib (ATRi) dose3, per replicate, read-out: EC50)?
Its EC50 is 2.48 nM and 5.32 nM and 2.13 nM and 3.3 nM and 2.33 nM and 5.9 nM and 5.31 nM.

And the Curve slope [1, 9]?
The Curve slope was 0.43 and 0.44 and 0.47 and 0.36 and 0.39.

And the Curve top [1, 9]?
Its Curve top is 0.95 and 1.46.

And the pEC50 [1, 9]?
Its pEC50 is 7.56 and 8.15 and 7.44 and 7.69 and 7.32 and 8.00.

And the EC50 ([1]; PDO UME008, GEM alone, per replicate, read-out: EC50)?
Its EC50 is 27.4 nM and 7.09 nM and 36.6 nM and 20.4 nM and 48 nM and 10.1 nM.

And the pEC50 ([2]; Experiment GEM (GEM alone))?
The pEC50 was 6.73 and 6.37 and 6.71 and 6.62 and 6.75 and 6.40 and 6.58 and 6.41.

What about the EC50 [2, 10] of the same compound?
Its EC50 is 185 nM and 427 nM and 194 nM and 239 nM and 177 nM and 398 nM and 263 nM and 393 nM.

What about the pEC50 [2, 11] of the same compound?
The pEC50 was 6.29 and 6.41 and 6.85 and 6.58 and 6.87 and 7.26 and 6.73 and 6.74.

And the EC50 [2, 12]?
The EC50 was 516 nM and 389 nM and 140 nM and 262 nM and 135 nM and 54.9 nM and 185 nM and 183 nM.

And the EC50 [2, 13]?
Its EC50 is 284 nM.

What about the EC50 [2, 14] of the same compound?
The EC50 was 233 nM.

And the EC50 [2, 15]?
The EC50 was 265 nM.

What about the EC50 [2, 16] of the same compound?
Its EC50 is 284 nM.

What about the pEC50 ([3]; Experiment GEM+ATRi_dose1 (ATRi = Elimusertib), single replicates R1-R8) of the same compound?
Its pEC50 is 6.49 and 6.68 and 7.12 and 6.42 and 6.56 and 6.26.

And the EC50 [3, 12]?
The EC50 was 321 nM and 209 nM and 76.6 nM and 382 nM and 273 nM and 548 nM and 379 nM.

What about the EC50 [3, 13] of the same compound?
The EC50 was 247 nM.

And the EC50 [3, 14]?
The EC50 was 313 nM.

And the EC50 [3, 15]?
Its EC50 is 156 nM.

And the EC50 [3, 17]?
Its EC50 is 209 nM.

And the EC50 [3, 16]?
Its EC50 is 247 nM.

What about the EC50 ([4]; Homo sapiens, PDO UME060, GEM alone, read-out: EC50 mean) of the same compound?
Its EC50 is 23.4 nM.

And the EC50 ([4]; Homo sapiens, PDO UME060, experiment GEM (GEM alone), mean of replicates, read-out: EC50 mean)?
Its EC50 is 23.4 nM.

What about the EC50 ([4]; PDO UME060, PDO set 2, experiment GEM (GEM alone), single replicates, read-out: EC50) of the same compound?
Its EC50 is 31.8 nM and 30.4 nM and 22.2 nM and 14.8 nM and 21.8 nM and 39.5 nM and 17.7 nM and 9.22 nM.

What about the Curve top ([4]; PDO UME060, experiment GEM (GEM alone), curve fit) of the same compound?
The Curve top was 1.00 and 0.88 and 1.04 and 0.95 and 1.07 and 0.83 and 1.30.

What about the pEC50 ([4]; PDO UME060, experiment GEM (GEM alone), single replicates) of the same compound?
Its pEC50 is 7.50 and 7.52 and 7.65 and 7.83 and 7.66 and 7.40 and 7.75 and 8.04.

And the pEC50 ([5]; Experiment GEM (GEM alone))?
The pEC50 was 8.39 and 8.78 and 8.35 and 8.91.

And the EC50 [5, 10]?
Its EC50 is 4.05 nM and 1.64 nM and 2.44 nM and 4.43 nM and 1.23 nM.

What about the pEC50 [5, 11] of the same compound?
The pEC50 was 8.24 and 8.20 and 8.63 and 8.99 and 8.75 and 8.16.

What about the EC50 [5, 12] of the same compound?
The EC50 was 5.81 nM and 6.33 nM and 3.06 nM and 2.33 nM and 1.02 nM and 1.78 nM and 6.97 nM.

What about the pEC50 ([5]; Experiment GEM+ATRi_dose3 (ATRi = Elimusertib)) of the same compound?
Its pEC50 is 9.08 and 8.91 and 9.48 and 9.75 and 9.91 and 9.06.

What about the EC50 [5, 14] of the same compound?
The EC50 was 3.9 nM.

What about the EC50 [5, 17] of the same compound?
Its EC50 is 0.59 nM.
